What follows are compounds tested against T1, PI3Kδ (Homo sapiens, UniProt O00329) (assay: PI3Kδ inhibition, modified PIK3CD Adapta TR-FRET assay). Conditions: recombinant GST-tagged full length PIK3CD co-expressed with PIK3R1 (p85α); 2 μM ATP, 50 μM PIP2; read-out: PI3Kδ Inhibition (pIC50) (converted).
T1 construct: The protein is full length and co-expressed with untagged PIK3R1; GST; purchased Invitrogen PV5274
Type: biochemical
Procedure, shortened: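 Inhibition was derived from % conversion against positive and negative controls, with ADP read by Adapta Eu-antibody/tracer TR-FRET. Room-temperature reactions used GST-PIK3CD/p85α in HEPES pH 7.5 buffer (MgCl2, EGTA, NaCl, CHAPS, fresh DTT), 1% DMSO final and 12 concentrations. They were initiated by adding 2 μM ATP/50 μM PIP2 solution.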

T1 sequence (O00329 whole entry): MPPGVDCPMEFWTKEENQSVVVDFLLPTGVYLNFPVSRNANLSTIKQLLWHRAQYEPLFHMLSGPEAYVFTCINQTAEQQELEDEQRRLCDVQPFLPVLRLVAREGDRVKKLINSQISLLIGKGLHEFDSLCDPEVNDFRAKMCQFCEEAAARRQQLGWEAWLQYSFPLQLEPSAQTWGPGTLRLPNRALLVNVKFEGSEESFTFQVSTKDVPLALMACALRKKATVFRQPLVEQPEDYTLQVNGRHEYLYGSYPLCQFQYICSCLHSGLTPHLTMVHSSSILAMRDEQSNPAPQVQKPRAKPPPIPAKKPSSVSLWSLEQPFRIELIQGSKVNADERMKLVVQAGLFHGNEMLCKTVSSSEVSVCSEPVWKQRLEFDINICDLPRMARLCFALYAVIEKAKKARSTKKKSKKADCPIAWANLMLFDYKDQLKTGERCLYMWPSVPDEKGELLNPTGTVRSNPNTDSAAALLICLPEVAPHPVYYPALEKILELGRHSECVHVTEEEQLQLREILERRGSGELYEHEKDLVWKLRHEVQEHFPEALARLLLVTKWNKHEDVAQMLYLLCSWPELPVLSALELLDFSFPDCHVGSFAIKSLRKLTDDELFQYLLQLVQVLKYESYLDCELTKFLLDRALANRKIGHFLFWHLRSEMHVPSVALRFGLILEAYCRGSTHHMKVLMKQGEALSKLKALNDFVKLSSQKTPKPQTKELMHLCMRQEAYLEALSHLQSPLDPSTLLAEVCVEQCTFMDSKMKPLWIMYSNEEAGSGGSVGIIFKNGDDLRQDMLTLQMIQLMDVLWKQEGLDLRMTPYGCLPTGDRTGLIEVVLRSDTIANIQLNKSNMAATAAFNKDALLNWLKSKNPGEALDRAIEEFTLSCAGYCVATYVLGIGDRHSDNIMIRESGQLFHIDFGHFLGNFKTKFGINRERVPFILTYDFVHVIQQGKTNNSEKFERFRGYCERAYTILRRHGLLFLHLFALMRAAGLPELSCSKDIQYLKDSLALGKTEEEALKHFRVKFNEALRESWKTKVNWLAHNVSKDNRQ
T1 sequence (P27986 whole entry partner): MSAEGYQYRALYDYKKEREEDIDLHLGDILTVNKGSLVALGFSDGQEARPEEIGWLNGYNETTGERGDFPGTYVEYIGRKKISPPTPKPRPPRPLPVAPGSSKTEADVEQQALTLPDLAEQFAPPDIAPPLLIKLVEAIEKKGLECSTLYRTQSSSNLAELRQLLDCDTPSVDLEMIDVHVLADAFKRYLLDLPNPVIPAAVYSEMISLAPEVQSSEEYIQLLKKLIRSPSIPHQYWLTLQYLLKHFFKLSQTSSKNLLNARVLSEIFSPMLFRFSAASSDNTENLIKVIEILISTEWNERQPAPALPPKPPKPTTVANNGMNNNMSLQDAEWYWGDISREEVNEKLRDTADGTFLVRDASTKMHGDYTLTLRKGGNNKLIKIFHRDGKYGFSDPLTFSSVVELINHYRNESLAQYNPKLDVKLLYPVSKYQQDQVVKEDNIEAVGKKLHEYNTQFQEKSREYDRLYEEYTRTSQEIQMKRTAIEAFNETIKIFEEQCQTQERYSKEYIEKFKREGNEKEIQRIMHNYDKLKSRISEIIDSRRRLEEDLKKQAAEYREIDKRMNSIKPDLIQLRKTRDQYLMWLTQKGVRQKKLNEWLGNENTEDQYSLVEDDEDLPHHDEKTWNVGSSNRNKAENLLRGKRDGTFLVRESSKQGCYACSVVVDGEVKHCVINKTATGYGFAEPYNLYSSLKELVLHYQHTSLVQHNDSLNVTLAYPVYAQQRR

Row | SMILES | IC50 [nM]
1 | O=C(Cc1cccs1)N1CC2COCCN2c2nc(-c3cccc4[nH]ccc34)ncc21 (stereo not drawn) [Example 49, 1-(2-(1H-indol-4-yl)-6a,7,9,10-tetrahydro-[1,4]oxazino[3,4-h]pteridin-5(6H)-yl)-2-(thiophen-2-yl)ethanone] | 200
2 | c1ccc(-n2cc(CN3CC4COCCN4c4nc(-c5cccc6[nH]ccc56)ncc43)nn2)cc1 (stereo not drawn) [Example 40] | 15.8
3 | CS(=O)(=O)c1ccc(CN2C(=O)C3COCCN3c3nc(-c4ccc(N)c(N)c4)ncc32)cc1 (stereo not drawn) [Example 131, 2-(3,4-diaminophenyl)-5-(4-(methylsulfonyl)benzyl)-6a,7,9,10-tetrahydro-[1,4]oxazino[3,4-h]pteridin-6(5H)-one] | 126
4 | Cc1nc(-c2cccc3[nH]ccc23)nc2c1N(CC1CC1)CC1COCCN21 (stereo not drawn) [Example 27, 5-(cyclopropylmethyl)-2-(1H-indol-4-yl)-4-methyl-5,6,6a,7,9,10-hexahydro-[1,4]oxazino[3,4-h]pteridine] | 251
5 | Oc1cc2c(-c3ncc4c(n3)N3CCOCC3CN4)cccc2[nH]1 (stereo not drawn) [Example 12, 4-(5,6,6a,7,9,10-hexahydro-[1,4]oxazino[3,4-h]pteridin-2-yl)-1H-indol-2-ol] | 7940
6 | Cc1ccccc1CNC(=O)CN1CC2COCCN2c2nc(-c3cccc4[nH]ccc34)ncc21 (stereo not drawn) [Example 41, 2-(2-(1H-indol-4-yl)-6a,7,9,10-tetrahydro-[1,4]oxazino[3,4-h]pteridin-5(6H)-yl)-N-(2-methylbenzyl)acetamide] | 31.6
7 | Nc1ncc(-c2ncc3c(n2)N2CCOCC2CN3)cn1 (stereo not drawn) [Example 1, 5-(5,6,6a,7,9,10-hexahydro-[1,4]oxazino[3,4-h]pteridin-2-yl)pyrimidin-2-amine] | 31.6
8 | O=C1Nc2cnc(-c3cccc4[nH]cnc34)nc2N2CCOCC12 (stereo not drawn) [Example 152, 2-(1H-benzo[d]imidazol-4-yl)-6a,7,9,10-tetrahydro-[1,4]oxazino[3,4-h]pteridin-6(5H)-one] | 501
9 | Cn1nccc1-c1ncc2c(n1)N1CCOC[C@H]1CN2CC(=O)NCC1CCOCC1 [Example 225, (R)-2-(2-(1-methyl-1H-pyrazol-5-yl)-6a,7,9,10-tetrahydro-[1,4]oxazino[3,4-h]pteridin-5(6H)-yl)-N-((tetrahydro-2H-pyran-4-yl)methyl)acetamide] | 1580
10 | CS(=O)(=O)c1ccc(CN2C(=O)C3COCCN3c3nc(-c4cnc(N)nc4)ncc32)cc1 (stereo not drawn) [Example 125, 2-(2-aminopyrimidin-5-yl)-5-(4-(methylsulfonyl)benzyl)-6a,7,9,10-tetrahydro-[1,4]oxazino[3,4-h]pteridin-6(5H)-one] | 10
11 | CS(=O)(=O)c1ccc(CN2C(=O)C3COCCN3c3nc(-c4cccc(S(N)(=O)=O)c4)ncc32)cc1 (stereo not drawn) [Example 115, 3-(5-(4-(methylsulfonyl)benzyl)-6-oxo-5,6,6a,7,9,10-hexahydro-[1,4]oxazino[3,4-h]pteridin-2-yl)benzenesulfonamide] | 631
12 | CNC(=O)Nc1ccc(-c2ncc3c(n2)N2CCOCC2C(=O)N3C2CCOCC2)cc1 (stereo not drawn) [Example 158, 1-methyl-3-(4-(6-oxo-5-(tetrahydro-2H-pyran-4-yl)-5,6,6a,7,9,10-hexahydro-[1,4]oxazino[3,4-h]pteridin-2-yl)phenyl)urea] | 7.94
13 | O=C(CN1C[C@@H]2COCCN2c2nc(-c3ccc(CO)cc3)ncc21)NCC1CCOCC1 [Example 214, (R)-2-(2-(4-(hydroxymethyl)phenyl)-6a,7,9,10-tetrahydro-[1,4]oxazino[3,4-h]pteridin-5(6H)-yl)-N-((tetrahydro-2H-pyran-4-yl)methyl)acetamide] | 2000
14 | CNC(=O)Nc1ccc(-c2ncc3c(n2)N2CCOCC2C(=O)N3[C@@H](C)c2ccc(Cl)cc2)cc1 (single isomer, unassigned) [Example 85] | 12.6
15 | CS(=O)(=O)c1ccc(CN2C(=O)C3COCCN3c3nc(-c4ccc(F)c5[nH]ccc45)ncc32)cc1 (stereo not drawn) [Example 142, 2-(7-fluoro-1H-indol-4-yl)-5-(4-(methylsulfonyl)benzyl)-6a,7,9,10-tetrahydro-[1,4]oxazino[3,4-h]pteridin-6(5H)-one] | 20
16 | CC(C)(C)OC(=O)CN1C[C@@H]2COCCN2c2nc(-c3cccc4[nH]ccc34)ncc21 [Example 68, (R)-tert-butyl 2-(2-(1H-indol-4-yl)-6a,7,9,10-tetrahydro-[1,4]oxazino[3,4-h]pteridin-5(6H)-yl)acetate] | 50.1
17 | CNS(=O)(=O)c1cccc(-c2ncc3c(n2)N2CCOCC2C(=O)N3Cc2ccc(S(C)(=O)=O)cc2)c1 (stereo not drawn) [Example 111, N-methyl-3-(5-(4-(methylsulfonyl)benzyl)-6-oxo-5,6,6a,7,9,10-hexahydro-[1,4]oxazino[3,4-h]pteridin-2-yl)benzenesulfonamide] | 1580

Row | SMILES | IC50 [nM]
18 | CC(=O)N1CC2COCCN2c2nc(-n3c(C)nc4ccccc43)ncc21 (stereo not drawn) [Example 56, 1-(2-(2-methyl-1H-benzo[d]imidazol-1-yl)-6a,7,9,10-tetrahydro-[1,4]oxazino[3,4-h]pteridin-5(6H)-yl)ethanone] | 3160
19 | CNC(=O)Nc1ccc(-c2ncc3c(n2)N2CCOCC2C(=O)N3CCc2c(C)n[nH]c2C)cc1 (stereo not drawn) [Example 94, 1-(4-(5-(2-(3,5-dimethyl-1H-pyrazol-4-yl)ethyl)-6-oxo-5,6,6a,7,9,10-hexahydro-[1,4]oxazino[3,4-h]pteridin-2-yl)phenyl)-3-methylurea] | 2.51
20 | Cc1ccc(S(=O)(=O)N2CC3COCCN3c3nc(-c4cccc5[nH]ccc45)ncc32)cc1 (stereo not drawn) [Example 18, 2-(1H-indol-4-yl)-5-tosyl-5,6,6a,7,9,10-hexahydro-[1,4]oxazino[3,4-h]pteridine] | 398
21 | O=C(Cc1coc2ccccc12)N1CC2COCCN2c2nc(-c3cccc4[nH]ccc34)ncc21 (stereo not drawn) [Example 52, 1-(2-(1H-indol-4-yl)-6a,7,9,10-tetrahydro-[1,4]oxazino[3,4-h]pteridin-5(6H)-yl)-2-(benzofuran-3-yl)ethanone] | 398
22 | CNC(=O)Nc1ccc(-c2ncc3c(n2)N2CCOCC2C(=O)N3C2CCc3ccc(OC)cc32)cc1 (stereo not drawn) [Example 148, 1-(4-(5-(6-methoxy-2,3-dihydro-1H-inden-1-yl)-6-oxo-5,6,6a,7,9,10-hexahydro-[1,4]oxazino[3,4-h]pteridin-2-yl)phenyl)-3-methylurea] | 3.98
23 | Nc1ccc(-c2ncc3c(n2)N2CCOC[C@H]2CN3CC(=O)NCC2CCOCC2)cn1 [Example 221, (R)-2-(2-(6-aminopyridin-3-yl)-6a,7,9,10-tetrahydro-[1,4]oxazino[3,4-h]pteridin-5(6H)-yl)-N-((tetrahydro-2H-pyran-4-yl)methyl)acetamide] | 126
24 | CS(=O)(=O)c1ccc(CN2CC3COCCN3c3nc(-c4cccc5[nH]c(C(F)(F)F)cc45)ncc32)cc1 (stereo not drawn) [Example 21, 5-(4-(methylsulfonyl)benzyl)-2-(2-(trifluoromethyl)-1H-indol-4-yl)-5,6,6a,7,9,10-hexahydro-[1,4]oxazino[3,4-h]pteridine] | 1260
25 | CS(=O)(=O)c1ccc(CN2C(=O)C3COCCN3c3nc(-c4ccc5[nH]ncc5c4)ncc32)cc1 (stereo not drawn) [Example 114, 2-(1H-indazol-5-yl)-5-(4-(methylsulfonyl)benzyl)-6a,7,9,10-tetrahydro-[1,4]oxazino[3,4-h]pteridin-6(5H)-one] | 200
26 | CCOC(=O)c1cncc(-c2ncc3c(n2)N2CCOCC2C(=O)N3Cc2ccc(S(C)(=O)=O)cc2)c1 (stereo not drawn) [Example 105, ethyl 5-(5-(4-(methylsulfonyl)benzyl)-6-oxo-5,6,6a,7,9,10-hexahydro-[1,4]oxazino[3,4-h]pteridin-2-yl)nicotinate] | 7940
27 | Cc1nccn1-c1ncc2c(n1)N1CCOCC1C(=O)N2Cc1ccc(S(C)(=O)=O)cc1 (stereo not drawn) [Example 156, 2-(2-methyl-1H-imidazol-1-yl)-5-(4-(methylsulfonyl)benzyl)-6a,7,9,10-tetrahydro-[1,4]oxazino[3,4-h]pteridin-6(5H)-one] | 316
28 | O=C(CCN1CC2COCCN2c2nc(-c3cccc4[nH]ccc34)ncc21)NCc1ccco1 (stereo not drawn) [Example 34, 3-(2-(1H-indol-4-yl)-6a,7,9,10-tetrahydro-[1,4]oxazino[3,4-h]pteridin-5(6H)-yl)-N-(furan-2-ylmethyl)propanamide] | 12.6
29 | N#Cc1ccccc1CN1CC2COCCN2c2nc(-c3cccc4[nH]ccc34)ncc21 (stereo not drawn) [Example 45, 2-((2-(1H-indol-4-yl)-6a,7,9,10-tetrahydro-[1,4]oxazino[3,4-h]pteridin-5(6H)-yl)methyl)benzonitrile] | 251
30 | c1cnc(CN2CC3COCCN3c3nc(-c4cccc5[nH]ccc45)ncc32)nc1 (stereo not drawn) [Example 164, 2-(1H-indol-4-yl)-5-(pyrimidin-2-ylmethyl)-5,6,6a,7,9,10-hexahydro-[1,4]oxazino[3,4-h]pteridine] | 79.4
31 | CS(=O)(=O)c1ccc(CN2C(=O)C3COCCN3c3nc(-c4ccnc5[nH]ccc45)ncc32)cc1 (stereo not drawn) [Example 155, 5-(4-(methylsulfonyl)benzyl)-2-(1H-pyrrolo[2,3-b]pyridin-4-yl)-6a,7,9,10-tetrahydro-[1,4]oxazino[3,4-h]pteridin-6(5H)-one] | 25.1
32 | CS(=O)(=O)c1ccc(CN2C(=O)C3COCCN3c3nc(-c4cccc5[nH]ccc45)ncc32)cc1 (stereo not drawn) [Example 123, 2-(1H-indol-4-yl)-5-(4-(methylsulfonyl)benzyl)-6a,7,9,10-tetrahydro-[1,4]oxazino[3,4-h]pteridin-6(5H)-one] | 0.794
33 | CS(=O)(=O)c1ccc(CN2C(=O)C3COCCN3c3nc(-c4cccc(-n5cccn5)c4)ncc32)cc1 (stereo not drawn) [Example 128, 2-(3-(1H-pyrazol-1-yl)phenyl)-5-(4-(methylsulfonyl)benzyl)-6a,7,9,10-tetrahydro-[1,4]oxazino[3,4-h]pteridin-6(5H)-one] | 501
